The results in this text go back to patent US6994981B2, “Modulators of paraptosis and related methods” (The Buck Institute, priority 2002, dated 2006).

Structures can show the parent of a compound that is named as a salt. Starred links: 1 amine or outer side, 2 acyl side, 3 side chain; linkers in the order of their positions; H or OH if unused. Positions of bridges follow the written chain, without caps; N, C: chain ends. Non-standard residues stand in square brackets, D forms with d. Residues, ends and D or L forms follow the SMILES beside them. Chains are numbered I, II in the order given. No end group written: not given here. Actinocin(9to1) = Cc1c2oc3c(C)ccc(C(=O)[*:1])c3nc-2c(C(=O)[*:2])c(N)c1=O; NMeV = CN[C@H](C(=O)O)C(C)C; Sar = CNCC(=O)O

In data set [1] the test system is striatal, cortical, and hippocampal neurons. Kind of data set: SP-induced cell death in primary striatal, cortical and hippocampal neurons, trypan blue viability and staining. Type of data set: cell-based, rat. The following applies: for effect on neuronal cell death in response to SP: added 30 min before SP: 10 μM PD 98059, 50 nM Calphostin C, 10 μM Rp-8-Br-cAMPS; for effect on SP-induced neuronal cell death: 5 nM L-732,138, 1 nM L-733,060; for effect on SP-induced neuronal cell death / effect on SP-induced cell death: added at the same time as SP; for effect on SP-induced cell death: 1 μg/ml. As to the method:
Rat neuronal primary cell cultures were also used to assay for inducers and inhibitors of paraptosis. Briefly, primary striatal, cortical and hippocampal cultures were prepared from 17-day-old Sprague-Dawley rat embryos (B&K). The tissue was dissected, minced and trypsinized for five minutes using 0.25% trypsin (Cell Grow). After the addition of 10% horse serum (Life Technologies) to inhibit the trypsin, the cell suspension was triturated 15–20 times with a 10 ml syringe and centrifuged for five minutes at 800×g. The pellet was resuspended in MEM-PAK (UCSF Cell Culture facility), supplemented with 2.02 gm glucose, 2 mM GLUTAMAX™ (Life Technologies) and penicillin/streptomycin (100 U/ml). The suspension was filtered through a […] cell strainer and the final culture medium contained 5% horse serum. Subsequently, 3-4×10^5 cells per Cm^2 were seeded onto either poly-D-lysine precoated 8-well chamber slides (Becton-Dickson Labware) or 96 well plates precoated with […] of poly-D-lysine (Sigma) in water. After 30 minutes of incubation time, unattached cells were removed together with the medium and replaced with glucose enriched MEM-PAK plus 5% horse serum. The cultures were then incubated at 37° C. in 95% air 5% carbon dioxide with 95% humidity. Cultures were used for experiments between day 1 and day 7 when glial contamination was at a minimum.
Primary neuronal cells were prepared as described in Example I. SP (SIGMA) at a concentration of 0.1 nM–100 μM was added 24–48 hrs after seeding, in the presence of 2.5% horse serum. When the cultures were maintained for more than 5 days, 10 μM cytosine arabinoside was added for 24 hours, beginning 3 days after plating the cells. Viability was quantified by trypan blue staining of the total cell population.
The following compounds were added at the same time as SP in the indicated experiments: 5 nM L-732, 138; 1 nM L-733,060; 1 μg/ml Actinomycin D or 1 μg/ml Cycloheximide. All of these compounds were obtained from SIGMA. The caspase inhibitors zVAD.fmk and BAF were added at 50 μM and obtained from Enzyme System Products, Livermore, Calif.
Either neuronal primary cultures or human embryonic kidney 293T cells were fixed with 4% paraformaldehyde and stained with 0.5 μg/ml DAPI (Molecular Probes) or Hoechst(SIGMA). […]
The protein kinase inhibitors were added 30 min before SP exposure at the following concentrations: 10 μM Rp-8-Br-cAMPS (adenosin 3′,5′-cyclic monophosphorothioate, 8-bromo-, Rp-isomer, sodium salt) which is a PKA inhibitor; 50 nM Calphostin C, which is a PKC inhibitor; 10 μM PD 98059 which is a MAPKK (MEK) inhibitor. These compounds were obtained from Calbiochem. Viability was quantified by trypan blue staining of the total cell population.

Data set [2] has as its system IGFIR-IC transfected 293T cells. Kind of data set: Inhibition of IGFIR-IC induced paraptosis in transfected 293T cells, LDH assay. The format is cell-based, human. The following applies: added at the time of transfection. As to the method: Paraptosis was induced in 293T cells by expressing the intracellular domain of the insulin-like growth factor I receptor (IGFIR-IC) in these cells using transient transfection as described above.
(§1) Test compounds were added to IGFIR-IC transfected 293T cells at the time of transfection.
The TRAF2 dominant negative mutant contains a deletion of the amino terminal 271 amino acids of the protein. The ratio of IGFIR-IC:AIP1 and IGFIR-IC:TRAF2DN was 1:3. […] Antisense oligonucleotide constructs for JNK1 or JNK2 (50–100 nM) were transfected into 293T cells one day before transfection with the IGFIR-IC construct. For all inhibition assays, cell viability was measured using the LDH assay.

The subject of data set [3] is paraptosis induced by caspase 7, caspase 8 or caspase 9. The data set can be described thus: Inhibition of paraptosis induced by caspases. The format is cell-based. How it is done:
as §1

For a further data set, the system named is 293T cells. The data set can be described thus: Induction of paraptosis in 293T cells, LDH cell death assay. Type of data set: cell-based, human. The following applies: for induction of paraptosis when expressed: pcDNA3 construct transiently transfected into 293T cells. As to the method: Human embryonic kidney 293T cell line cells were used to assay for inducers and inhibitors of paraptosis. These cells were cultured in high glucose DMEM (Life Technologies) supplemented with 10% FBS (Sigma) and 1% penicillin/streptomycin (Life Technologies). The cultures were incubated at 37° C. in 95% air 5% carbon dioxide with 95% humidity.
Subsequently, compounds were added to 293T cells and/or rat neuronal primary cell culture cells in order to determine if the compounds could induce paraptosis. Cell death was assayed using the lactate dehydrogenase (LDH) assay, in which the relative amount of enzyme released from dying cells in the medium is measured by following the disappearance of nicotinamide adenine dinucleotide, reduced form (NADH) in the following reaction: pyruvate+NADH <−>NAD^++ lactate. Briefly, 50 μl of culture medium for either 293T cells or 100 μl of culture medium for neuronal primary culture were dispensed in a 96 well plate to which 100 μl of a solution consisting of 5 mg of NADH dissolved in 20 ml of PBS and 0.5 ml of 100 mM NaPyruvate. NADH disappearance was assessed by kinetic photmetric readings at a 340 nm wavelength at 19 minute intervals over a period of 2 hours and 30 minutes.
Constructs of pcDNA3 containing procaspase-7 or procaspase-8 were transiently transfected into 293T cells using Lipofect-Amine (GIBCO-BRL) according to the manufacturer's instructions. Briefly, 1×10^6 293T cells were seeded in 6 cm dishes, and transfected the next day using a ratio of DNA:Lipofect-Amine of 1 μg:5 μl. Transfection efficiency was 60–80% for 293T cells, as determined by X-gal staining after transfection of a β-galactosidase construct.

The test system of data set [4] is caspases, calpains, proteasome. The data set can be described thus: Protease activation during SP-induced cell death, substrate hydrolysis in cytosolic extracts of NK1R-transfected 293T cells. The settings on record: added to cytosolic extract of NK1R-transfected 293T cells. Type of data set: biochemical, human. As to the method:
Preparation of cell-free extract for kinetic studies: 293T cells seeded at the density of 2 million cells per 10 cm dish were transfected with NK1R cDNA using Lipofectamine 2000 (Gibco) according the instructions provided by the manufacturer. After 24 hr 10 nM SP was added to half of the culture dishes. At 24 hr later the cells were washed with ice cold PBS and collected with a cell scraper. The cells pelleted at 700×g for 4 min were resuspended in cell lysis buffer at pH 7.4 containing 1 mM dithiothreitol at a ratio of 1:1 (v/v). After 30 min on ice the swelled cells were disrupted with 20 strokes using a 27 gauge needle and further spun at 16,000×g for 30 min. The pellet was discarded and the supernatant which represents the cytosolic fraction was aliquoted and stored at −80° C. or used in the kinetic studies. The protein concentration was determined using the Bradford assay (Pierce).
For kinetic studies, the proteolytic activities were followed fluorometrically by monitoring AFC or AMC release from 100 μM of the corresponding substrates (Enzyme Systems Products): Caspase-1 like, Ac-YVAD-AFC; caspase-2, Ac-VDVAD-AFC; caspases-3 like, Ac-DEVD-AFC; caspase-6, Ac-VEID-AFC; caspase-8, Ac-IETD-AFC; caspase-9, Ac-LEHD-AFC. Calpain activity was monitored with 100 μM Suc-LY-AFC (succinyl-Leu-Tyr-7-amino-4-methylcoumarin, Enzyme Systems Products) at 5 μM and 5 mM CaCl2. The chymotrypsin activity of the proteasome was followed with 100 μM Suc-LLVY-AFC (succinyl-Leu-Leu-Val-Tyr-7-amino-4-methylcoumarin, Enzyme Systems Products), and cathepsins were assayed using 20 μM Z-FR-AMC (Benzyloxycarbonyl-Phe-Arg-7-amino-4-methylcoumarin, Bachem). A 10 μl aliquot of extract in the presence or absence of SP was added to 90 μl of substrate at the appropriate concentration and pH. The reaction was continuously monitored during 30 min and 37° C. in a fluorescence microplate reader (Molecular Devices). The instrument was set at excitation and emission wavelengths of 405 and 510 for AFC releasing group, and 370 and 460 nm, for AMC releasing group, respectively. The steady-state hydrolysis rates were obtained from the linear part of the curves.

As for `Nc1ncnc2c1nc(Br)n2C1OC2COP(O)(=S)OC2C1O` (single isomer, unassigned) [Rp-8-Br-cAMPS, adenosin 3′,5′-cyclic monophosphorothioate, 8-bromo-, Rp-isomer, sodium salt], in data set [1], the “effect on neuronal cell death in response to SP” value is listed as “no protective effect”.

On to `c1cnc2c(c1)ccc1cccnc12` [1–10-phenantroline], for which the “concentration able to inhibit IGFIR-IC induced paraptosis” value in data set [2] was 0.05 µM. Also, in data set [3], the “inhibition of paraptosis induced by caspase 8” value is recorded as “able to inhibit paraptosis” and the “inhibition of paraptosis induced by caspase 9” value was “able to inhibit paraptosis”.

Consider `O=S(=O)(NCCNC/C=C/c1ccc(Br)cc1)c1cccc2cnccc12` [H89], for which the “concentration able to inhibit IGFIR-IC induced paraptosis” value in data set [2] lay within 10 to 20 µM.

With `CC(=O)N[C@@H](Cc1c[nH]c2ccccc12)C(=O)OCc1cc(C(F)(F)F)cc(C(F)(F)F)c1` [L-732,138], the “effect on SP-induced neuronal cell death” value in data set [1] is given as “inhibited SP-induced cell death”.

For the molecule `FC(F)(F)c1cc(CO[C@H]2CCCN[C@H]2c2ccccc2)cc(C(F)(F)F)c1` [L-733,060], the “effect on SP-induced neuronal cell death” value in data set [1] is reported as “inhibited SP-induced cell death”.

Consider `Cc1c2oc3c(C)ccc(C(=O)N[C@@H]4C(=O)N[C@H](C(C)C)C(=O)N5CCC[C@H]5C(=O)N(C)CC(=O)N(C)[C@@H](C(C)C)C(=O)O[C@@H]4C)c3nc-2c(C(=O)N[C@@H]2C(=O)N[C@H](C(C)C)C(=O)N3CCC[C@H]3C(=O)N(C)CC(=O)N(C)[C@@H](C(C)C)C(=O)O[C@@H]2C)c(N)c1=O` [actinomycin D] (I: T[dV]P[Sar][NMeV] / II: T[dV]P[Sar][NMeV]; ester I:1-I:C, II:1-II:C; linker I:N-II:N via Actinocin(9to1)), for which the “effect on SP-induced cell death” value in data set [1] was “prevented”.

For the molecule `C[C@@H]1C[C@@H]([C@H](O)CC2CC(=O)NC(=O)C2)C(=O)[C@@H](C)C1` [cyclohexamide], in data set [1], the “effect on SP-induced cell death” value is on record as “prevented”.

Regarding Calphostin C, the “effect on neuronal cell death in response to SP” value in data set [1] is “no protective effect”.

Regarding “D form of SP: D isomer of substance P ([dR][dP][dK][dP][dQ][dQ][dF][dF]G[dL][dM]; ends and bridges not checked)”, in data set [1] (L or D isomer), the “effect of SP isomer on neuronal cell death” value is listed as “no effect on cell death”.

In the case of Tumor Necrosis Factor-α, in the data set with 293T cells (293T cells), the “concentration at which found to induce paraptosis” value is 1 to 10 ng/mL.

Take “granzyme B: serine protease that activates procaspase-3”: the “increase of DEVDase activity” value in data set [4] is recorded as 7 fold.

As for “neurokinin A: NK1R agonist that does not exhibit mitochondrial toxicity (HKTDSFVGLM; ends and bridges not checked; UniProt P20366 98-107, looked up)”, the “induction of cell death by NK1R agonists” value in data set [1] (compared with SP) is “able to induce cell death as well as SP”.

B1: procaspase-7: procaspase-7 expressed in 293T cells from a pcDNA3 construct (protein, UniProt P55210 2-303, looked up)
pro-form: ADDQGCIEEQGVEDSANEDSVDAKPDRSSFVPSLFSKKKKNVTMRSIKTTRDRVPTYQYNMNFEKLGKCIIINNKNFDKVTGMGVRNGTDKDAEALFKCFRSLGFDVIVYNDCSCAKMQDLLKKASEEDHTNAACFACILLSHGEENVIYGKDGVTPIKDLTAHFRGDRCKTLLEKPKLFFIQACRGTELDDGIQADSGPINDTDANPRYKIPVEADFLFAYSTVPGYYSWRSPGRGSWFVQALCSILEEHGKDLEIMQILTRVNDRVARHFESQSDDPHFHEKKQIPCVVSMLTKELYFSQ
modifications: pro-form
notes: procaspase-7 expressed in 293T cells from a pcDNA3 construct
As for B1, the “induction of paraptosis when expressed” value in the data set on 293T cells was “able to induce paraptosis”.

B2: procaspase-8: procaspase-8 expressed in 293T cells from a pcDNA3 construct (protein, UniProt Q14790 1-479, looked up)
pro-form: MDFSRNLYDIGEQLDSEDLASLKFLSLDYIPQRKQEPIKDALMLFQRLQEKRMLEESNLSFLKELLFRINRLDLLITYLNTRKEEMERELQTPGRAQISAYRVMLYQISEEVSRSELRSFKFLLQEEISKCKLDDDMNLLDIFIEMEKRVILGEGKLDILKRVCAQINKSLLKIINDYEEFSKERSSSLEGSPDEFSNGEELCGVMTISDSPREQDSESQTLDKVYQMKSKPRGYCLIINNHNFAKAREKVPKLHSIRDRNGTHLDAGALTTTFEELHFEIKPHDDCTVEQIYEILKIYQLMDHSNMDCFICCILSHGDKGIIYGTDGQEAPIYELTSQFTGLKCPSLAGKPKVFFIQACQGDNYQKGIPVETDSEEQPYLEMDLSSPQTRYIPDEADFLLGMATVNNCVSYRNPAEGTWYIQSLCQSLRERCPRGDDILTILTEVNYEVSNKDDKKNMGKQMPQPTFTLRKKLVFPSD
modifications: pro-form
notes: procaspase-8 expressed in 293T cells from a pcDNA3 construct
As to B2, the “induction of paraptosis when expressed” value in the data set with 293T cells is “able to induce paraptosis”.
